Where two headings read alike, the source gives them in different places. Values belong to the molecule of their own block, whether it stands above or below them.
Key:
Assay type in all cases: physicochemical
[1] = Solubility test of compound of formula I and its salts at 37° C.; conditions: for Solubility (mg/mL) (1 h) / Solubility (mg/mL) (24 h) / solubility at 1 h / solubility at 24 h: calculated as free base; for solubility (in words): water, pH 7.4 at 37° C.; for solubility at 1 h / solubility at 24 h: thermodynamic from solid; for solubility at 1 h: read-out: Solubility (mg/mL) (1 h); for solubility at 24 h: read-out: Solubility (mg/mL) (24 h)
Protocol: The solubility of the compound of formula I and the L-tartrate, fumarate, and D-malate thereof was studied in water, SGF, FaSSIF, FeSSIF, and pH 7.4 at 37° C.
Experimental method: 30 mg (in water) or 15 mg of the sample was weighed into a 4 mL vial, then 3 mL of the medium to be tested was added thereto, and the resulting mixture was stirred continuously at 37° C. 0.5 mL of the sample was collected at 1 hour and 24 hours, respectively, and centrifuged at 12,000 rpm for 5 minutes. The supernatant was diluted to an appropriate multiple with 50% acetonitrile and its concentration was determined.
Therefore, 13 mg of the fumarate of the compound of formula I was weighed into a 25 mL volumetric flask (approximately 10 mg added to the 25 mL volumetric flask, calculated as free base), dissolved in 50% acetonitrile aqueous solution and diluted to the scale, and two samples were prepared in parallel. STD-1 was diluted to 200 μg/mL, 50 μg/mL, and 10 μg/mL with 50% acetonitrile aqueous solution. 5 μL of the sample was injected, and the standard curve was plotted.

[2] = Stability test of mono-L-tartrate, fumarate and D-malate (related substances by HPLC); conditions: for Purity (HPLC): in % (unit assumed); for chemical stability: after accelerated high humidity and high temperature testing
Protocol: The stability of the mono-L-tartrate, fumarate, and D-malate of the compound of formula I obtained in examples 1 to 3 was studied. […]
Detection of related substances: Approximately 5 mg of the sample was weighed into a 40 mL sample vial, dissolved in 10 mL of 50% acetonitrile aqueous solution and diluted to the scale, and 5 μL of the sample was injected.

[3] = Stability study on crystal form A (related substances by HPLC, crystal form by XRPD)
Protocol: Detection method of stability sample related substances: Approximately 5 mg of the sample was weighed, added with 5 mL of 20% methanol, ultrasonicated for a few seconds so that the compound can be completely dissolved, and 5 μL of the sample was injected for testing of related substances.

[4] = Hygroscopicity (dynamic vapor sorption classification)
Protocol: Approximately 10 mg of the sample was weighed at 25° C. under a 0% to 95% to 0% relative humidity (RH) cycle for testing the moisture absorption/desorption characteristics.

[5] = pH 7.4 medium, aqueous buffer, pH 7.4, 37° C.
[6] = simulated gastric fluid, SGF, 37° C.

Structure (SMILES): O=C(O)CC(O)C(=O)O.O=C(c1cnc(NC2CCc3ncccc32)nc1)N1CCC2(CCOCC2)C1 [D-malate of compound of formula I]
Sample appearance ([1]; FaSSIF, 37° C.): Clarified solution
Solubility (mg/mL) (1 h) ([1]; FaSSIF, 37° C.): 5.26 mg/mL
Solubility (mg/mL) (24 h) ([1]; FaSSIF, 37° C.): 5.36 mg/mL
Sample appearance ([1]; FeSSIF, 37° C.): Clarified solution
Solubility (mg/mL) (1 h) ([1]; FeSSIF, 37° C.): 5.31 mg/mL
Solubility (mg/mL) (24 h) ([1]; FeSSIF, 37° C.): 5.28 mg/mL
Sample appearance ([1]; SGF, 37° C.): Clarified solution
Solubility (mg/mL) (1 h) ([1]; SGF, 37° C.): 5.36 mg/mL
Solubility (mg/mL) (24 h) ([1]; SGF, 37° C.): 5.37 mg/mL
Final pH ([1]; Water, 37° C.): 3.75
Sample appearance ([1]; Water, 37° C.): Clarified solution
Solubility (mg/mL) (1 h) ([1]; Water, 37° C.): 10.60 mg/mL
Solubility (mg/mL) (24 h) ([1]; Water, 37° C.): 10.76 mg/mL
Sample appearance ([1]; pH 7.4, 37° C.): Clarified solution
Solubility (mg/mL) (1 h) ([1]; pH 7.4, 37° C.): 5.54 mg/mL
Solubility (mg/mL) (24 h) ([1]; pH 7.4, 37° C.): 5.53 mg/mL
solubility (in words) ([1]; SGF, FaSSIF, FeSSIF): good solubility
Total impurities % ([2]; 40° C./75% RH-closed-20 d): 0.09%
Purity (HPLC) ([2]; 40° C./75% RH-closed-20 d): 99.91
Total impurities % ([2]; 40° C./75% RH-open-20 d): 0.10%
Purity (HPLC) ([2]; 40° C./75% RH-open-20 d): 99.90
Total impurities % ([2]; 60° C.-open-20 d): 0.18%
Purity (HPLC) ([2]; 60° C.-open-20 d): 99.82
Total impurities % ([2]; Initial): 0.11%
Purity (HPLC) ([2]; Initial): 99.89
chemical stability [2]: good chemical stability

Structure (SMILES): O=C(O)C(O)C(O)C(=O)O.O=C(c1cnc(NC2CCc3ncccc32)nc1)N1CCC2(CCOCC2)C1 (centres unmarked) [crystal form A]
Individual impurities % ([3]; 40° C./75% RH-closed-2 wks): 0.04%
Purity % ([3]; 40° C./75% RH-closed-2 wks): 99.92%
Total impurities % ([3]; 40° C./75% RH-closed-2 wks): 0.08%
Individual impurities % ([3]; 40° C./75% RH-open-2 wks): 0.06%
Purity % ([3]; 40° C./75% RH-open-2 wks): 99.89%
Total impurities % ([3]; 40° C./75% RH-open-2 wks): 0.11%
Individual impurities % ([3]; 60° C.-open-2 wks): 0.06%
Purity % ([3]; 60° C.-open-2 wks): 99.87%
Total impurities % ([3]; 60° C.-open-2 wks): 0.13%
Individual impurities % ([3]; 80% RH-open-2 wks): 0.05%
Purity % ([3]; 80% RH-open-2 wks): 99.90%
Total impurities % ([3]; 80% RH-open-2 wks): 0.10%
Individual impurities % ([3]; 92.5% RH-open-2 wks): 0.06%
Purity % ([3]; 92.5% RH-open-2 wks): 99.89%
Total impurities % ([3]; 92.5% RH-open-2 wks): 0.11%
Individual impurities % ([3]; Initial): 0.04%
Purity % ([3]; Initial): 99.92%
Total impurities % ([3]; Initial): 0.08%
change of crystal form ([3]; at 60° C. under high humidity conditions of 80% RH): has not changed
crystal form obtained after exposure ([3]; exposed to 92.5% RH for 3 days): crystal form B
stability (in words) ([3]; high temperature and high humidity conditions): good stability

Now from value to molecule:

Final pH ([1]; FaSSIF, 37° C.): 3.84
Sample appearance ([1]; FaSSIF, 37° C.): Clarified solution
Sample appearance ([1]; FeSSIF, 37° C.): Clarified solution
Sample appearance ([1]; SGF, 37° C.): Clarified solution
Final pH ([1]; Water, 37° C.): 3.21
Sample appearance ([1]; Water, 37° C.): Clarified solution
Sample appearance ([1]; pH 7.4, 37° C.): Clarified solution
solubility at 1 h [1, 5]: 5.09 mg/mL
solubility at 24 h [1, 5]: 4.97 mg/mL
solubility at 1 h [1, 6]: 5.19 mg/mL
solubility at 24 h [1, 6]: 5.25 mg/mL
solubility at 1 h ([1]; FaSSIF, 37° C.): 5.08 mg/mL
solubility at 24 h ([1]; FaSSIF, 37° C.): 5.12 mg/mL
solubility at 1 h ([1]; FeSSIF, 37° C.): 5.12 mg/mL
solubility at 24 h ([1]; FeSSIF, 37° C.): 5.02 mg/mL
solubility at 1 h ([1]; Water, 37° C.): 10.3 mg/mL
solubility at 24 h ([1]; Water, 37° C.): 10.5 mg/mL
solubility (in words) ([1]; SGF, FaSSIF, FeSSIF): good solubility
Total impurities % ([2]; 40° C./75% RH-closed-2 wks): 0.06%
Purity (HPLC) ([2]; 40° C./75% RH-closed-2 wks): 99.94
Total impurities % ([2]; 40° C./75% RH-open-2 wks): 0.10%
Purity (HPLC) ([2]; 40° C./75% RH-open-2 wks): 99.90
Total impurities % ([2]; 60° C.-open-2 wks): 0.08%
Purity (HPLC) ([2]; 60° C.-open-2 wks): 99.92
Total impurities % ([2]; Initial): 0.06%
Purity (HPLC) ([2]; Initial): 99.94
chemical stability [2]: good chemical stability
Structure (SMILES): O=C(c1cnc(N[C@@H]2CCc3ncccc32)nc1)N1CCC2(CCOCC2)C1 [Mono-L-tartrate of compound of formula I]

Sample appearance ([1]; FaSSIF, 37° C.): Clarified solution
Solubility (mg/mL) (1 h) ([1]; FaSSIF, 37° C.): 5.44 mg/mL
Solubility (mg/mL) (24 h) ([1]; FaSSIF, 37° C.): 5.57 mg/mL
Sample appearance ([1]; FeSSIF, 37° C.): Clarified solution
Solubility (mg/mL) (1 h) ([1]; FeSSIF, 37° C.): 5.75 mg/mL
Solubility (mg/mL) (24 h) ([1]; FeSSIF, 37° C.): 5.63 mg/mL
Sample appearance ([1]; SGF, 37° C.): Clarified solution
Solubility (mg/mL) (1 h) ([1]; SGF, 37° C.): 5.37 mg/mL
Solubility (mg/mL) (24 h) ([1]; SGF, 37° C.): 5.46 mg/mL
Final pH ([1]; Water, 37° C.): 3.32
Sample appearance ([1]; Water, 37° C.): Clarified solution
Solubility (mg/mL) (1 h) ([1]; Water, 37° C.): 11.05 mg/mL
Solubility (mg/mL) (24 h) ([1]; Water, 37° C.): 11.37 mg/mL
Sample appearance ([1]; pH 7.4, 37° C.): Clarified solution
Solubility (mg/mL) (1 h) ([1]; pH 7.4, 37° C.): 5.65 mg/mL
Solubility (mg/mL) (24 h) ([1]; pH 7.4, 37° C.): 5.61 mg/mL
solubility (in words) ([1]; SGF, FaSSIF, FeSSIF): good solubility
Total impurities % ([2]; 40° C./75% RH-closed-2 wks): 0.30%
Purity (HPLC) ([2]; 40° C./75% RH-closed-2 wks): 99.70
Total impurities % ([2]; 40° C./75% RH-open-2 wks): 0.31%
Purity (HPLC) ([2]; 40° C./75% RH-open-2 wks): 99.69
Total impurities % ([2]; 60° C.-open-2 wks): 0.32%
Purity (HPLC) ([2]; 60° C.-open-2 wks): 99.68
Total impurities % ([2]; Initial): 0.31%
Purity (HPLC) ([2]; Initial): 99.69
chemical stability [2]: good chemical stability
Structure (SMILES): O=C(O)C=CC(=O)O.O=C(c1cnc(NC2CCc3ncccc32)nc1)N1CCC2(CCOCC2)C1 (centres unmarked) [Fumarate of compound of formula I]

Final pH ([1]; FaSSIF, 37° C.): 6.38
Sample appearance ([1]; FaSSIF, 37° C.): Clarified solution
Final pH ([1]; FeSSIF, 37° C.): 4.99
Sample appearance ([1]; FeSSIF, 37° C.): Clarified solution
Final pH ([1]; SGF, 37° C.): 1.37
Sample appearance ([1]; SGF, 37° C.): Clarified solution
Final pH ([1]; Water, 37° C.): 7.32
Sample appearance ([1]; Water, 37° C.): Clarified solution
Final pH ([1]; pH 7.4, 37° C.): 7.56
Sample appearance ([1]; pH 7.4, 37° C.): Clarified solution
solubility at 1 h [1, 5]: 5.11 mg/mL
solubility at 24 h [1, 5]: 5.2 mg/mL
solubility at 1 h [1, 6]: 5.23 mg/mL
solubility at 24 h [1, 6]: 5.39 mg/mL
solubility at 1 h ([1]; FaSSIF, 37° C.): 5.1 mg/mL
solubility at 24 h ([1]; FaSSIF, 37° C.): 5.22 mg/mL
solubility at 1 h ([1]; FeSSIF, 37° C.): 5.46 mg/mL
solubility at 24 h ([1]; FeSSIF, 37° C.): 5.33 mg/mL
solubility at 1 h ([1]; Water, 37° C.): 10.6 mg/mL
solubility at 24 h ([1]; Water, 37° C.): 10.8 mg/mL
solubility (in words) ([1]; SGF, FaSSIF, FeSSIF): good solubility
hygroscopicity [4]: highly hygroscopic
Structure (SMILES): O=C(c1ccc(N[C@@H]2CCc3ncccc32)nc1)N1CCC2(CCOCC2)C1 [Compound of formula I]

Reference: patent publication US20250197414A1, “SALT FORM AND CRYSTAL FORM OF VANIN ENZYME INHIBITOR, METHOD FOR PREPARING SAME, AND USE THEREOF” (SHANGHAI MEIYUE BIOTECH DEVELOPMENT CO., LTD., priority 2022, published 2025)
